Assay results: paper PMC6691788, “Design and synthesis of phthalazine-based compounds as potent anticancer agents with potential antiangiogenic activity via VEGFR-2 inhibition” (Journal of Enzyme Inhibition and Medicinal Chemistry, 2019)

Tests used:
HOP-62 = test: NCI 60 cell panel SRB screen; type: cell-based; conditions: Homo sapiens; for GI50 / IC (TGI) / CC50: HOP-62, 5 log dose; for CC50: 48 h, read-out: LC50 (the source's name); for activity at 10 µM: HOP-62, single dose 10 μM, read-out: percent cell growth promotion
HCT-116 = test: NCI 60 cell panel SRB screen; type: cell-based; conditions: Homo sapiens; for GI50 / IC (TGI) / LC50 (lethal concentration 50%): HCT-116, 5 log dose; for LC50 (lethal concentration 50%): 48 h; for activity at 10 µM: HCT-116, single dose 10 μM, read-out: percent cell growth promotion
HCT-15 = test: NCI 60 cell panel SRB screen; type: cell-based; conditions: Homo sapiens; for GI50 / IC (TGI) / CC50: HCT-15, 5 log dose; for CC50: 48 h, read-out: LC50 (the source's name); for activity at 10 µM: HCT-15, single dose 10 μM, read-out: percent cell growth promotion
SF-295 = test: NCI 60 cell panel SRB screen; type: cell-based; conditions: Homo sapiens; for GI50 / IC (TGI) / CC50: SF-295, 5 log dose; for CC50: 48 h, read-out: LC50 (the source's name); for activity at 10 µM: SF-295, single dose 10 μM, read-out: percent cell growth promotion
SNB-19 = test: NCI 60 cell panel SRB screen; type: cell-based; conditions: Homo sapiens; for GI50 / IC (TGI) / CC50: SNB-19, 5 log dose; for CC50: 48 h, read-out: LC50 (the source's name); for activity at 10 µM: SNB-19, single dose 10 μM, read-out: percent cell growth promotion
U251 = test: NCI 60 cell panel SRB screen; type: cell-based; conditions: Homo sapiens, U-251; for GI50 / IC (TGI) / CC50: U251, 5 log dose; for CC50: 48 h, read-out: LC50 (the source's name); for activity at 10 µM: U251, single dose 10 μM, read-out: percent cell growth promotion
M14 = test: NCI 60 cell panel SRB screen; type: cell-based; conditions: Homo sapiens; for GI50: M14; for IC (TGI): M14, read-out: TGI; for activity at 10 µM: M14, read-out: percent cell growth promotion; for CC50: M14, 5 log dose, 48 h, read-out: LC50 (the source's name)
MDA-MB-435 = test: NCI 60 cell panel SRB screen; type: cell-based; conditions: Homo sapiens; for GI50: MDA-MB-435; for IC (TGI): MDA-MB-435, read-out: TGI; for activity at 10 µM: MDA-MB-435, read-out: percent cell growth promotion; for CC50: MDA-MB-435, 5 log dose, 48 h, read-out: LC50 (the source's name)
SK-MEL-5 = test: NCI 60 cell panel SRB screen; type: cell-based; conditions: Homo sapiens; for GI50: SK-MEL-5; for IC (TGI): SK-MEL-5, read-out: TGI; for activity at 10 µM: SK-MEL-5, read-out: percent cell growth promotion; for CC50: SK-MEL-5, 5 log dose, 48 h, read-out: LC50 (the source's name)
UACC-62 = test: NCI 60 cell panel SRB screen; type: cell-based; conditions: for GI50 / activity at 10 µM / CC50: Homo sapiens; for GI50: UACC-62; for activity at 10 µM: UACC-62, read-out: percent cell growth promotion; for CC50 / TGI: UACC-62, 5 log dose; for CC50: 48 h, read-out: LC50 (the source's name)
A498 = test: NCI 60 cell panel SRB screen; type: cell-based; conditions: Homo sapiens; for GI50 / IC (TGI) / CC50: A498, 5 log dose; for CC50: 48 h, read-out: LC50 (the source's name); for activity at 10 µM: A498, single dose 10 μM, read-out: percent cell growth promotion
ACHN = test: NCI 60 cell panel SRB screen; type: cell-based; conditions: Homo sapiens; for GI50 / IC (TGI) / CC50: 5 log dose; for CC50: 48 h, read-out: LC50 (the source's name); for activity at 10 µM: single dose 10 μM, read-out: percent cell growth promotion
CAKI-1 = test: NCI 60 cell panel SRB screen; type: cell-based, human; conditions: for TGI / GI50 / CC50: CAKI-1, 5 log dose; for GI50 / CC50 / activity at 10 µM: Homo sapiens; for CC50: 48 h, read-out: LC50 (the source's name); for activity at 10 µM: CAKI-1, single dose 10 μM, read-out: percent cell growth promotion
SN12C = test: NCI 60 cell panel SRB screen; type: cell-based; conditions: Homo sapiens; for GI50 / IC (TGI) / CC50: 5 log dose; for CC50: 48 h, read-out: LC50 (the source's name); for activity at 10 µM: single dose 10 μM, read-out: percent cell growth promotion
DU-145 = test: NCI 60 cell panel SRB screen; type: cell-based; conditions: Homo sapiens; for GI50 / IC (TGI) / CC50: DU-145, 5 log dose; for CC50: 48 h, read-out: LC50 (the source's name); for activity at 10 µM: DU-145, single dose 10 μM, read-out: percent cell growth promotion
MCF7 = test: NCI 60 cell panel SRB screen; type: cell-based; conditions: Homo sapiens; for GI50: MCF7; for IC (TGI): MCF7, read-out: TGI; for activity at 10 µM: MCF7, read-out: percent cell growth promotion; for CC50: MCF7, 5 log dose, 48 h, read-out: LC50 (the source's name)
MDA-MB 231/ATCC = test: NCI 60 cell panel SRB screen; type: cell-based; conditions: Homo sapiens; for GI50 / CC50: MDA-MB-231; for IC (TGI): MDA-MB-231, read-out: TGI; for activity at 10 µM: MDA-MB-231, read-out: percent cell growth promotion; for CC50: MDA-MDA 231/ATCC, 5 log dose, 48 h, read-out: LC50 (the source's name)
HS 578T = test: NCI 60 cell panel SRB screen; type: cell-based; conditions: Homo sapiens; for GI50 / IC (TGI) / activity at 10 µM: Hs-578T; for IC (TGI): read-out: TGI; for activity at 10 µM: read-out: percent cell growth promotion; for CC50: HS 578T, 5 log dose, 48 h, read-out: LC50 (the source's name)
full NCI 60 cell panel = test: NCI 60 cell panel SRB screen, whole panel; type: cell-based, human; conditions: Homo sapiens, 60 cell; for activity at 10 µM: mean over the panel, single dose 10 μM, read-out: Mean percent cell growth promotion; for inhibition at 10 µM: single dose 10 µM, read-out: cell growth inhibition against various cell lines

O=C(Nc1ccc(Cl)cc1)Nc1ccc(Nc2nncc3ccccc23)cc1 [Compound 6b, 1–(4-Chlorophenyl)-3–(4-(phthalazin-1-ylamino)phenyl)urea]
GI50 (HOP-62): 3 µM
IC (TGI) (HOP-62): 14.9 µM
CC50 (HOP-62): 74.9 µM
activity at 10 µM (HOP-62): 20.6%
GI50 (HCT-116): 2.46 µM
IC (TGI) (HCT-116): 12 µM
LC50 (lethal concentration 50%) (HCT-116): 37.4 µM
activity at 10 µM (HCT-116): 15.2%
GI50 (HCT-15): 1.59 µM
IC (TGI) (HCT-15): 11.8 µM
CC50 (HCT-15): 71.5 µM
activity at 10 µM (HCT-15): 18.3%
GI50 (SF-295): 2.84 µM
IC (TGI) (SF-295): 11 µM
CC50 (SF-295): 45.8 µM
activity at 10 µM (SF-295): 17.8%
GI50 (SNB-19): 3.67 µM
IC (TGI) (SNB-19): 19 µM
CC50 (SNB-19): > 100 µM
activity at 10 µM (SNB-19): 33%
GI50 (U251): 2.86 µM
IC (TGI) (U251): 10.3 µM
CC50 (U251): 37.2 µM
activity at 10 µM (U251): 18.3%
GI50 (M14): 1.52 µM
IC (TGI) (M14): 11.5 µM
activity at 10 µM (M14): 19.3%
CC50 (M14): 40.7 µM
GI50 (MDA-MB-435): 2.14 µM
IC (TGI) (MDA-MB-435): 9.42 µM
activity at 10 µM (MDA-MB-435): 13.7%
CC50 (MDA-MB-435): 30.9 µM
GI50 (SK-MEL-5): 2.31 µM
IC (TGI) (SK-MEL-5): 6.82 µM
activity at 10 µM (SK-MEL-5): 7.12%
CC50 (SK-MEL-5): 24.7 µM
GI50 (UACC-62): 0.95 µM
activity at 10 µM (UACC-62): 13.4%
CC50 (UACC-62): 38.1 µM
TGI (UACC-62): 7.97 µM
GI50 (A498): 3.79 µM
IC (TGI) (A498): 18.8 µM
CC50 (A498): > 100 µM
activity at 10 µM (A498): 24.5%
GI50 (ACHN): 1.12 µM
IC (TGI) (ACHN): 7.12 µM
CC50 (ACHN): > 100 µM
activity at 10 µM (ACHN): 22.4%
TGI (CAKI-1): 12.5 µM
GI50 (CAKI-1): 1.97 µM
CC50 (CAKI-1): 88 µM
activity at 10 µM (CAKI-1): 20.6%
GI50 (SN12C): 4.58 µM
IC (TGI) (SN12C): 37.2 µM
CC50 (SN12C): > 100 µM
activity at 10 µM (SN12C): 26.4%
GI50 (DU-145): 3.17 µM
IC (TGI) (DU-145): 26.9 µM
CC50 (DU-145): > 100 µM
activity at 10 µM (DU-145): 33.7%
GI50 (MCF7): 1.43 µM
IC (TGI) (MCF7): 8.32 µM
activity at 10 µM (MCF7): 5.46%
CC50 (MCF7): 64.1 µM
GI50 (MDA-MB 231/ATCC): 3.4 µM
IC (TGI) (MDA-MB 231/ATCC): 15.9 µM
activity at 10 µM (MDA-MB 231/ATCC): 36.6%
CC50 (MDA-MB 231/ATCC): 64.9 µM
GI50 (HS 578T): 3.83 µM
IC (TGI) (HS 578T): 27.7 µM
activity at 10 µM (HS 578T): 58.3%
CC50 (HS 578T): > 100 µM
activity at 10 µM (full NCI 60 cell panel): 25%
inhibition at 10 µM (full NCI 60 cell panel): > 90%

O=C(Nc1ccccc1)Nc1ccc(Oc2nnc(Cl)c3ccccc23)cc1 [Compound 13a, 1–(4-(4-Chlorophthalazin-1-yloxy)phenyl)-3-phenylurea]
GI50 (HOP-62): 2.52 µM
IC (TGI) (HOP-62): 65.4 µM
CC50 (HOP-62): 17 µM
activity at 10 µM (HOP-62): -43.4%
GI50 (HCT-116): 3.06 µM
IC (TGI) (HCT-116): 9.77 µM
LC50 (lethal concentration 50%) (HCT-116): > 25 µM
activity at 10 µM (HCT-116): 10.6%
GI50 (HCT-15): 3.54 µM
IC (TGI) (HCT-15): 12.9 µM
CC50 (HCT-15): > 25 µM
activity at 10 µM (HCT-15): 36.4%
GI50 (SF-295): 2.07 µM
IC (TGI) (SF-295): 5.63 µM
CC50 (SF-295): 13.5 µM
activity at 10 µM (SF-295): 31.2%
GI50 (SNB-19): 1.67 µM
IC (TGI) (SNB-19): 8.46 µM
CC50 (SNB-19): > 25 µM
activity at 10 µM (SNB-19): 9.64%
GI50 (U251): 2.14 µM
IC (TGI) (U251): 5.2 µM
CC50 (U251): 11.4 µM
activity at 10 µM (U251): 4.84%
GI50 (M14): 6.15 µM
IC (TGI) (M14): > 25 µM
activity at 10 µM (M14): 46.2%
CC50 (M14): > 25 µM
GI50 (MDA-MB-435): 7.54 µM
IC (TGI) (MDA-MB-435): > 25 µM
activity at 10 µM (MDA-MB-435): 48.6%
CC50 (MDA-MB-435): > 25 µM
GI50 (SK-MEL-5): 4.56 µM
IC (TGI) (SK-MEL-5): 18.6 µM
activity at 10 µM (SK-MEL-5): 32.9%
CC50 (SK-MEL-5): > 25 µM
GI50 (UACC-62): 6.84 µM
activity at 10 µM (UACC-62): 41.3%
CC50 (UACC-62): > 25 µM
TGI (UACC-62): > 25 µM
GI50 (A498): 3.45 µM
IC (TGI) (A498): 13.1 µM
CC50 (A498): > 25 µM
activity at 10 µM (A498): 49.2%
GI50 (ACHN): 3.47 µM
IC (TGI) (ACHN): 18.7 µM
CC50 (ACHN): > 25 µM
activity at 10 µM (ACHN): 33.9%
TGI (CAKI-1): 14.3 µM
GI50 (CAKI-1): 3.34 µM
CC50 (CAKI-1): > 25 µM
activity at 10 µM (CAKI-1): 84.4%
GI50 (SN12C): 6.72 µM
IC (TGI) (SN12C): > 25 µM
CC50 (SN12C): > 25 µM
activity at 10 µM (SN12C): 53.7%
GI50 (DU-145): 3.01 µM
IC (TGI) (DU-145): 10.5 µM
CC50 (DU-145): > 25 µM
activity at 10 µM (DU-145): 39%
GI50 (MCF7): 1.32 µM
IC (TGI) (MCF7): 6.32 µM
activity at 10 µM (MCF7): -4.15%
CC50 (MCF7): 20.6 µM
GI50 (MDA-MB 231/ATCC): 4.76 µM
IC (TGI) (MDA-MB 231/ATCC): 12.3 µM
activity at 10 µM (MDA-MB 231/ATCC): 32.1%
CC50 (MDA-MB 231/ATCC): > 25 µM
GI50 (HS 578T): 2.12 µM
IC (TGI) (HS 578T): 10.4 µM
activity at 10 µM (HS 578T): 1.19%
CC50 (HS 578T): > 25 µM
activity at 10 µM (full NCI 60 cell panel): 24.1%
inhibition at 10 µM (full NCI 60 cell panel): > 90%
